# Results published in ChEMBL document CHEMBL1671662, “In vitro activities of telavancin and six comparator agents against anaerobic bacterial isolates” (2009).
# What was measured:
# [1] = tested on: Ruminococcus flavefaciens; test: Antibacterial activity against Ruminococcus flavefaciens by CLSI M11-A6 agar dilution method; assay type: functional
# Bifidobacterium breve = test: Antibacterial activity against Bifidobacterium breve by CLSI M11-A6 agar dilution method; assay type: functional
# Prevotella buccae = test: Antibacterial activity against Prevotella buccae by CLSI M11-A6 agar dilution method; assay type: functional; details: Segatella buccae
# Ruminococcus lactaris = test: Antibacterial activity against Ruminococcus lactaris by CLSI M11-A6 agar dilution method; assay type: functional
# [2] = tested on: Bifidobacterium pseudolongum; test: Antibacterial activity against Bifidobacterium pseudolongum by CLSI M11-A6 agar dilution method; assay type: functional
# Ruminococcus torques = test: Antibacterial activity against Ruminococcus torques by CLSI M11-A6 agar dilution method; assay type: functional; details: Mediterraneibacter torques
# [3] = tested on: Bifidobacterium adolescentis; test: Antibacterial activity against Bifidobacterium adolescentis by CLSI M11-A6 agar dilution method; assay type: functional
# Clostridium spiroforme = test: Antibacterial activity against Clostridium spiroforme by CLSI M11-A6 agar dilution method; assay type: functional; details: Thomasclavelia spiroformis
# [4] = tested on: Coprobacillus cateniformis; test: Antibacterial activity against Coprobacillus cateniformis by CLSI M11-A6 agar dilution method; assay type: functional
# Clostridium scindens = test: Antibacterial activity against Clostridium scindens by CLSI M11-A6 agar dilution method; assay type: functional
# Clostridium glycolicum = test: Antibacterial activity against Clostridium glycolicum by CLSI M11-A6 agar dilution method; assay type: functional; details: Terrisporobacter glycolicus
# [5] = tested on: Clostridium sporosphaeroides; test: Antibacterial activity against Clostridium sporosphaeroides by CLSI M11-A6 agar dilution method; assay type: functional; details: Faecalispora sporosphaeroides
# Prevotella denticola = test: Antibacterial activity against Prevotella P denticola by CLSI M11-A6 agar dilution method; assay type: functional
# Parabacteroides merdae = test: Antibacterial activity against Parabacteroides merdae by CLSI M11-A6 agar dilution method; assay type: functional
# Coriobacterium = test: Antibacterial activity against […] by CLSI M11-A6 agar dilution method; assay type: functional
# Clostridium disporicum = test: Antibacterial activity against Clostridium disporicum by CLSI M11-A6 agar dilution method; assay type: functional
# Clostridium bartlettii = test: Antibacterial activity against Clostridium bartlettii by CLSI M11-A6 agar dilution method; assay type: functional; details: Intestinibacter bartlettii
# Finegoldia magna = test: Antibacterial activity against Finegoldia magna by CLSI M11-A6 agar dilution method; assay type: functional
# Clostridium subterminale = test: Antibacterial activity against Clostridium subterminale by CLSI M11-A6 agar dilution method; assay type: functional
# Hoylesella oralis = test: Antibacterial activity against Prevotella oralis by CLSI M11-A6 agar dilution method; assay type: functional
# Ruminococcus gnavus = test: Antibacterial activity against Ruminococcus gnavus by CLSI M11-A6 agar dilution method; assay type: functional; details: Mediterraneibacter gnavus
# Bifidobacterium dentium = test: Antibacterial activity against Bifidobacterium dentium by CLSI M11-A6 agar dilution method; assay type: functional
# [6] = tested on: Paeniclostridium sordellii; test: Antibacterial activity against Clostridium sordellii by CLSI M11-A6 agar dilution method; assay type: functional; details: Paraclostridium sordellii
# Anaerococcus prevotii = test: Antibacterial activity against Anaerococcus prevotii by CLSI M11-A6 agar dilution method; assay type: functional
# Actinomyces naeslundii = test: Antibacterial activity against Actinomyces naeslundii by CLSI M11-A6 agar dilution method; assay type: functional
# [7] = Antibacterial activity against Bifidobacterium infantis by CLSI M11-A6 agar dilution method; assay type: functional, Bifidobacterium longum subsp. infantis; details: Bifidobacterium longum
# Bifidobacterium longum = test: Antibacterial activity against Bifidobacterium longum by CLSI M11-A6 agar dilution method; assay type: functional
# Bilophila wadsworthia = test: Antibacterial activity against Bilophila wadsworthia by CLSI M11-A6 agar dilution method; assay type: functional
# [8] = tested on: Parabacteroides distasonis; test: Antibacterial activity against Parabacteroides distasonis by CLSI M11-A6 agar dilution method; assay type: functional
# Clostridium leptum = test: Antibacterial activity against Clostridium leptum by CLSI M11-A6 agar dilution method; assay type: functional
# Clostridium sp. = test: Antibacterial activity against Clostridium sp. by CLSI M11-A6 agar dilution method; assay type: functional
# Ruminococcus obeum = test: Antibacterial activity against Ruminococcus obeum by CLSI M11-A6 agar dilution method; assay type: functional; details: Blautia obeum
# Blautia luti = test: Antibacterial activity against Ruminococcus luti by CLSI M11-A6 agar dilution method; assay type: functional
# Anaerococcus tetradius = test: Antibacterial activity against Anaerococcus tetradius by CLSI M11-A6 agar dilution method; assay type: functional
# Clostridium beijerinckii = test: Antibacterial activity against Clostridium beijerinckii by CLSI M11-A6 agar dilution method; assay type: functional
# [9] = tested on: Bacteroides thetaiotaomicron; test: Antibacterial activity against Bacteroides thetaiotaomicron by CLSI M11-A6 agar dilution method; assay type: functional
# [Clostridium] innocuum = Antibacterial activity against Clostridium innocuum by CLSI M11-A6 agar dilution method; assay type: functional
# Bifidobacterium bifidum = test: Antibacterial activity against Bifidobacterium bifidum by CLSI M11-A6 agar dilution method; assay type: functional
# [10] = tested on: Enterocloster clostridioformis; test: Antibacterial activity against Clostridium clostridioforme by CLSI M11-A6 agar dilution method; assay type: functional
# [11] = tested on: Catenibacterium mitsuokai; test: Antibacterial activity against Catenibacterium mitsuokai by CLSI M11-A6 agar dilution method; assay type: functional
# Prevotella corporis = test: Antibacterial activity against Prevotella corporis by CLSI M11-A6 agar dilution method; assay type: functional
# Fusobacterium mortiferum = test: Antibacterial activity against Fusobacterium mortiferum by CLSI M11-A6 agar dilution method; assay type: functional
# Streptococcus anginosus = test: Antibacterial activity against Streptococcus anginosus by CLSI M11-A6 agar dilution method; assay type: functional
smiles,measurement,setting,value
CCCCCCCCCC(=O)N[C@@H](Cc1c[nH]c2ccccc12)C(=O)N[C@H](CC(N)=O)C(=O)N[C@@H](CC(=O)O)C(=O)N[C@@H]1C(=O)NCC(=O)N[C@@H](CCCN)C(=O)N[C@@H](CC(=O)O)C(=O)N[C@H](C)C(=O)N[C@@H](CC(=O)O)C(=O)NCC(=O)N[C@H](CO)C(=O)N[C@@H]([C@H](C)CC(=O)O)C(=O)N[C@@H](CC(=O)c2ccccc2N)C(=O)O[C@@H]1C,MIC50,[1],1 µg/mL
same,MIC90,[1],2 µg/mL
same,MIC50,Bifidobacterium breve,1 µg/mL
same,MIC90,Bifidobacterium breve,32 µg/mL
same,MIC,Prevotella buccae,> 128 µg/mL
same,MIC50,Prevotella buccae,> 128 µg/mL
same,MIC90,Prevotella buccae,> 128 µg/mL
same,MIC50,Ruminococcus lactaris,1 µg/mL
same,MIC90,Ruminococcus lactaris,2 µg/mL
same,MIC50,[2],1 µg/mL
same,MIC90,[2],32 µg/mL
same,MIC50,Ruminococcus torques,1 µg/mL
same,MIC90,Ruminococcus torques,2 µg/mL
same,MIC50,[3],1 µg/mL
same,MIC90,[3],32 µg/mL
same,MIC50,Clostridium spiroforme,1 µg/mL
same,MIC90,Clostridium spiroforme,8 µg/mL
same,MIC50,[4],1 µg/mL
same,MIC90,[4],32 µg/mL
same,MIC50,Clostridium scindens,1 µg/mL
same,MIC90,Clostridium scindens,8 µg/mL
same,MIC50,Clostridium glycolicum,1 µg/mL
same,MIC90,Clostridium glycolicum,8 µg/mL
same,MIC50,[5],1 µg/mL
same,MIC90,[5],8 µg/mL
same,MIC,Prevotella denticola,> 128 µg/mL
same,MIC50,Prevotella denticola,> 128 µg/mL
same,MIC90,Prevotella denticola,> 128 µg/mL
same,MIC,Parabacteroides merdae,> 128 µg/mL
same,MIC50,Parabacteroides merdae,> 128 µg/mL
same,MIC90,Parabacteroides merdae,> 128 µg/mL
same,MIC50,Coriobacterium,1 µg/mL
same,MIC90,Coriobacterium,32 µg/mL
same,MIC50,Clostridium disporicum,1 µg/mL
same,MIC90,Clostridium disporicum,8 µg/mL
same,MIC50,Clostridium bartlettii,1 µg/mL
same,MIC90,Clostridium bartlettii,8 µg/mL
same,MIC50,Finegoldia magna,1 µg/mL
same,MIC90,Finegoldia magna,4 µg/mL
same,MIC50,Clostridium subterminale,1 µg/mL
same,MIC90,Clostridium subterminale,2 µg/mL
same,MIC,Hoylesella oralis,> 128 µg/mL
same,MIC50,Hoylesella oralis,> 128 µg/mL
same,MIC90,Hoylesella oralis,> 128 µg/mL
same,MIC50,Ruminococcus gnavus,≤ 0.12 µg/mL
same,MIC90,Ruminococcus gnavus,0.25 µg/mL
same,MIC50,Bifidobacterium dentium,1 µg/mL
same,MIC90,Bifidobacterium dentium,32 µg/mL
same,MIC50,[6],1 µg/mL
same,MIC90,[6],8 µg/mL
same,MIC50,Anaerococcus prevotii,1 µg/mL
same,MIC90,Anaerococcus prevotii,4 µg/mL
same,MIC50,Actinomyces naeslundii,1 µg/mL
same,MIC90,Actinomyces naeslundii,32 µg/mL
same,MIC50,[7],1 µg/mL
same,MIC90,[7],32 µg/mL
same,MIC50,Bifidobacterium longum,1 µg/mL
same,MIC90,Bifidobacterium longum,32 µg/mL
same,MIC,Bilophila wadsworthia,> 128 µg/mL
same,MIC50,Bilophila wadsworthia,> 128 µg/mL
same,MIC90,Bilophila wadsworthia,> 128 µg/mL
same,MIC,[8],> 128 µg/mL
same,MIC50,[8],> 128 µg/mL
same,MIC90,[8],> 128 µg/mL
same,MIC50,Clostridium leptum,1 µg/mL
same,MIC90,Clostridium leptum,8 µg/mL
same,MIC50,Clostridium sp.,1 µg/mL
same,MIC90,Clostridium sp.,8 µg/mL
same,MIC50,Ruminococcus obeum,0.5 µg/mL
same,MIC90,Ruminococcus obeum,0.5 µg/mL
same,MIC50,Blautia luti,1 µg/mL
same,MIC90,Blautia luti,2 µg/mL
same,MIC50,Anaerococcus tetradius,1 µg/mL
same,MIC90,Anaerococcus tetradius,4 µg/mL
same,MIC50,Clostridium beijerinckii,1 µg/mL
same,MIC90,Clostridium beijerinckii,8 µg/mL
same,MIC,[9],> 128 µg/mL
same,MIC50,[9],> 128 µg/mL
same,MIC90,[9],> 128 µg/mL
same,MIC50,[Clostridium] innocuum,8 µg/mL
same,MIC90,[Clostridium] innocuum,16 µg/mL
same,MIC50,Bifidobacterium bifidum,1 µg/mL
same,MIC90,Bifidobacterium bifidum,32 µg/mL
same,MIC50,[10],2 µg/mL
same,MIC90,[10],4 µg/mL
same,MIC50,[11],1 µg/mL
same,MIC90,[11],32 µg/mL
same,MIC,Prevotella corporis,> 128 µg/mL
same,MIC50,Prevotella corporis,> 128 µg/mL
same,MIC90,Prevotella corporis,> 128 µg/mL
same,MIC,Fusobacterium mortiferum,> 128 µg/mL
same,MIC50,Fusobacterium mortiferum,> 128 µg/mL
same,MIC90,Fusobacterium mortiferum,> 128 µg/mL
same,MIC50,Streptococcus anginosus,2 µg/mL
same,MIC90,Streptococcus anginosus,4 µg/mL
